Assay results: patent US20040023362A1, “Degradation of polycyclic aromatic hydrocarbons by microorganisms” (priority 2000, published 2004)
In brackets after ≈: the same amount, converted by molar mass.

How the values were obtained:
VUN 110,010 = test: Growth of PAH-degrading bacteria on a variety of carbon sources; format: cell-based, Stenotrophomonas maltophilia; details: substrate 50 mg l^−1 (or vapor phase), sole carbon source
Protocol: (§1) Gram staining and biochemical tests for bacterial identification were performed according to Collin et al. (1989) following growth in nutrient broth or nutrient agar. […] Compounds tested were added to BSM as a sole carbon and energy source at 50 mg l^−1, and volatile compounds were supplied to the culture in the vapour phase. […] The cells were collected and washed in BSM and the resuspended cells were inoculated into BSM containing different carbon sources. Inoculated BSM without an added carbon source and uninoculated BSM plus carbon source were used as controls. Inocula for the PAH degradation tests were transferred directly from parent cultures, but inocula for other carbon sources were washed prior to inoculation.

VUN 110,012 = test: as above; format: cell-based, Stenotrophomonas maltophilia; details: substrate 50 mg l^−1 (or vapor phase), sole carbon source
Protocol: as §1

VUN 110,013 = format: cell-based, Burkholderia sp.; details: substrate 50 mg l^−1 (or vapor phase), sole carbon source
Protocol: as §1

VUN 110,011 = test: Growth of PAH-degrading bacteria on a variety of carbon sources; format: cell-based, Pseudomonas fluorescens; details: substrate 50 mg l^−1 (or vapor phase), sole carbon source
Protocol: as §1

[1] = tested on: strains VUN 10,010, VUN 10,011 and VUN 10,012; test: Growth of all the strains on compounds as sole carbon and energy source; format: cell-based; details: supplied at 50 mg l^−1
Protocol: as §1

[2] = tested on: S. maltophilia VUN 10,010; test: Degradation of single high molecular weight PAHs by high initial populations of VUN 10,010 with surfactant; format: cell-based, Stenotrophomonas maltophilia
Protocol: […] Incubations contained a single PAH in BSM at 30° C. The PAH remaining was calculated as a percentage relative to the PAH recovered from the […]. Averages for the test cultures are from triplicate experiments.
Tergitol NP-10 (5 and 10 g l^−1) was added to BSM broths each containing a single high molecular weight PAH.

[3] = tested on: S. maltophilia VUN 10,010; test: Degradation of a PAH mixture by VUN 10,010 with surfactant, low initial cell population; format: cell-based, Stenotrophomonas maltophilia; details: for Maximum Specific Degradation Rate: — = not appreciable
Protocol: The incubations were conducted in BSM at 30° C., using low initial cell populations. The PAH remaining was calculated as a percentage relative to the PAH recovered from the uninoculated control. Averages for the test cultures are from triplicate experiments.
A low initial cell population of around 9×10^3 cells ml^−1 was used.

[4] = PAH solubilization by surfactants (apparent solubility, MSR, Km)
Protocol: PAHs (approximately 1 g l^−1) were added to a 10 ml solution of BSM plus surfactant in a 30 ml glass reaction vial, which was sealed with an aluminium cap fitted with a septum. Surfactant concentrations corresponded to levels above, below, and at the CMC, and replicates were set up to allow sampling in duplicate at different time intervals up to 72 h. Incubation was performed at 30° C. and 175 rpm. The entire vial contents was collected by syringe and expressed through a preconditioned membrane filter (0.22 μm, Sartorius AG, Germany) to remove solid-phase crystalline PAH while allowing solubilized PAH in the aqueous phase and micellar pseudophase to pass into sterile vials. The filter was preconditioned by purging the filter with a few mls of sample solution to allow sorption saturation of the internal surfaces of the syringe, filter and needle. The filtrates were extracted with dichloromethane (DCM), and the concentration of solubilized PAH was determined by GC-FID as described below.
The effectiveness of a particular surfactant in solubilizing a given PAH can be assessed by determining the molar solubilization ratio (MSR) and micelle/water partition coefficient (Km). In our study, the concentrations of added PAHs were well in excess of aqueous saturation concentrations; therefore the MSR value of each compound can be obtained from the slope of the curve generated from a plot of PAH concentration versus surfactant concentration for surfactant concentrations above CMC (Edwards et al, 1991).
Km values can be determined from the measured MSR values according to the following equation (Edwards et al, 1991): [formula]
^SPAH, CMC is the apparent solubility of the PAH (mol l^−1) at surfactant CMC. VW is the molar volume of water at 30° C. ie. 0.018015 l mol^−1(Rogers and Mayhew, 1981).

[5] = Tergitol NP-10 5 g l^−1, Single PAH
[6] = Tergitol NP-10 10 g l^−1, Single PAH
[7] = Tergitol NP-10 5 g l^−1, Mixed PAH

Compound: Oc1c(Cl)c(Cl)cc(Cl)c1Cl [2,3,5,6-tetrachloro-phenol]
- Growth (VUN 110,010): +
- Growth (VUN 110,012): +
- Growth (VUN 110,013): +
- Growth (VUN 110,011): +

Compound: Oc1cc(Cl)c(Cl)cc1Cl [2,4,5-trichloro-phenol]
- Growth (VUN 110,010): +
- Growth (VUN 110,012): +
- Growth (VUN 110,013): +
- Growth (VUN 110,011): +

Compound: Oc1cc(Cl)ccc1Cl [2,5-dichlorophenol]
- Growth (VUN 110,010): +
- Growth (VUN 110,012): +
- Growth (VUN 110,013): +
- Growth (VUN 110,011): +
- growth on compound as the sole carbon and energy source [1]: grew

Compound: Oc1ccc(Cl)cc1 [4-chlorophenol]
- Growth (VUN 110,010): +
- Growth (VUN 110,012): +
- Growth (VUN 110,013): +
- Growth (VUN 110,011): −
- growth on compound as the sole carbon and energy source [1]: grew

Compound: O=[N+]([O-])c1ccc(O)cc1 [4-nitrophenol]
- Growth (VUN 110,010): −
- Growth (VUN 110,012): −
- Growth (VUN 110,013): −
- Growth (VUN 110,011): −

Compound: c1ccccc1 [Benzene]
- Growth (VUN 110,010): +
- Growth (VUN 110,012): +
- Growth (VUN 110,013): +
- Growth (VUN 110,011): +
- growth on compound as the sole carbon and energy source [1]: grew

Compound: O=C(O)c1ccccc1 [Benzoic acid]
- Growth (VUN 110,010): +
- Growth (VUN 110,012): +
- Growth (VUN 110,013): +
- Growth (VUN 110,011): +
- growth on compound as the sole carbon and energy source [1]: grew

Compound: Oc1ccccc1O [Catechol]
- Growth (VUN 110,010): +
- Growth (VUN 110,012): +
- Growth (VUN 110,013): +
- Growth (VUN 110,011): +
- growth on compound as the sole carbon and energy source [1]: grew

Compound: O=C(O)C=Cc1ccccc1 [Cinnamic acid]
- Growth (VUN 110,010): +
- Growth (VUN 110,012): −
- Growth (VUN 110,013): −
- Growth (VUN 110,011): −

Compound: c1cc2ccc3ccc4ccc5ccc6ccc1c1c2c3c4c5c61 [Coronene, coronene]
- Maximum Specific Degradation Rate ([2]; Brij 35 5 g l^−1, Single PAH): 0.79 mg PAH degraded mg^−1 protein day^−1
- percentage change in maximum specific degradation rate due to surfactant addition ([2]; Brij 35 5 g l^−1, Single PAH): +5%
- Maximum Specific Degradation Rate ([2]; Brij 35 10 g l^−1, Single PAH): 1.19 mg PAH degraded mg^−1 protein day^−1
- percentage change in maximum specific degradation rate due to surfactant addition ([2]; Brij 35 10 g l^−1, Single PAH): +59%
- Maximum Specific Degradation Rate ([2]; No Surfactant, Single PAH): 0.75 mg PAH degraded mg^−1 protein day^−1
- PAH degradation rate in the presence of surfactants ([2]; Tergitol NP-10 5 and 10 g l^−1, high initial cell population): did not show improved PAH degradation rate
- Maximum Specific Degradation Rate [2, 5]: 0.98 mg PAH degraded mg^−1 protein day^−1
- percentage change in maximum specific degradation rate due to surfactant addition [2, 5]: +31%
- Maximum Specific Degradation Rate [2, 6]: 0.79 mg PAH degraded mg^−1 protein day^−1
- percentage change in maximum specific degradation rate due to surfactant addition [2, 6]: +5%

Compound: CC(C)(CO)[C@@H](O)C(=O)NCCC(=O)O [D-panthothenic acid]
- Growth (VUN 110,010): +
- Growth (VUN 110,012): +
- Growth (VUN 110,013): +
- Growth (VUN 110,011): +

Compound: c1ccc2c(c1)-c1cccc3cccc-2c13 [Fluoranthene, fluoranthene]
- Maximum Specific Degradation Rate ([3]; No Surfactant, Mixed PAH): 1.02 mg PAH degraded mg^−1 protein day^−1
- percentage change in maximum specific degradation rate due to surfactant addition [3, 7]: +9%
- Maximum Specific Degradation Rate [3, 7]: 1.11 mg PAH degraded mg^−1 protein day^−1
- solubility ([4]; 30° C.): ~1.37 µM (≈ 0.277 µg/mL)
- solubility ([4]; 30 °C, aqueous with cosolvent or surfactant or cyclodextrin, thermodynamic from solid): 730 to 810 µM (≈ 148 to 164 µg/mL)
- Maximum Specific Degradation Rate ([2]; Brij 35 5 g l^−1, Single PAH): 3.71 mg PAH degraded mg^−1 protein day^−1
- percentage change in maximum specific degradation rate due to surfactant addition ([2]; Brij 35 5 g l^−1, Single PAH): +28%
- Maximum Specific Degradation Rate ([2]; Brij 35 10 g l^−1, Single PAH): 12.11 mg PAH degraded mg^−1 protein day^−1
- percentage change in maximum specific degradation rate due to surfactant addition ([2]; Brij 35 10 g l^−1, Single PAH): +318%
- Maximum Specific Degradation Rate ([2]; No Surfactant, Single PAH): 2.90 mg PAH degraded mg^−1 protein day^−1
- Maximum Specific Degradation Rate [2, 5]: 4.54 mg PAH degraded mg^−1 protein day^−1
- percentage change in maximum specific degradation rate due to surfactant addition [2, 5]: +57%
- Maximum Specific Degradation Rate [2, 6]: 4.59 mg PAH degraded mg^−1 protein day^−1
- percentage change in maximum specific degradation rate due to surfactant addition [2, 6]: +58%

Compound: O=C(O)c1cc(O)ccc1O [Gentisic acid]
- Growth (VUN 110,010): +
- Growth (VUN 110,012): +
- Growth (VUN 110,013): +
- Growth (VUN 110,011): +

Compound: O=C(O)/C=C\C(=O)O [Maleic acid]
- Growth (VUN 110,010): +
- Growth (VUN 110,012): +
- Growth (VUN 110,013): +
- Growth (VUN 110,011): +

Compound: O=[N+]([O-])c1ccccc1 [Nitrobenzene]
- Growth (VUN 110,010): +
- Growth (VUN 110,012): +
- Growth (VUN 110,013): −
- Growth (VUN 110,011): −

Compound: Oc1c(Cl)c(Cl)c(Cl)c(Cl)c1Cl [Pentachlorophenol]
- Growth (VUN 110,010): +
- Growth (VUN 110,012): +
- Growth (VUN 110,013): −
- Growth (VUN 110,011): −

Compound: O=C(O)c1ccccc1C(=O)O [Phthalic acid]
- Growth (VUN 110,010): +
- Growth (VUN 110,012): +
- Growth (VUN 110,013): +
- Growth (VUN 110,011): +
- growth on compound as the sole carbon and energy source [1]: grew

Compound: O=C(O)c1ccc(O)c(O)c1 [Protocatechuic acid]
- Growth (VUN 110,010): +
- Growth (VUN 110,012): +
- Growth (VUN 110,013): +
- Growth (VUN 110,011): +
- growth on compound as the sole carbon and energy source [1]: grew

Compound: CC(=O)C(=O)O [Pyruvate]
- Growth (VUN 110,010): +
- Growth (VUN 110,012): +
- Growth (VUN 110,013): +
- Growth (VUN 110,011): +

Compound: O=C(O)c1ccccc1O [Salicylic acid]
- Growth (VUN 110,010): +
- Growth (VUN 110,012): +
- Growth (VUN 110,013): +
- Growth (VUN 110,011): +
- growth on compound as the sole carbon and energy source [1]: grew

Compound: O=C(O)CCC(=O)O [Succinic acid]
- Growth (VUN 110,010): +
- Growth (VUN 110,012): +
- Growth (VUN 110,013): +
- Growth (VUN 110,011): +
- growth on compound as the sole carbon and energy source [1]: grew

Compound: Cc1ccccc1 [Toluene]
- Growth (VUN 110,010): +
- Growth (VUN 110,012): +
- Growth (VUN 110,013): −
- Growth (VUN 110,011): +
- growth on compound as the sole carbon and energy source [1]: grew

Compound: CCCCCCCCCCCCCCCC [n-hexadecane]
- Growth (VUN 110,010): +
- Growth (VUN 110,012): +
- Growth (VUN 110,013): +
- Growth (VUN 110,011): +
- growth on compound as the sole carbon and energy source [1]: grew

Compound: CCCCCCCC [n-octane]
- Growth (VUN 110,010): +
- Growth (VUN 110,012): +
- Growth (VUN 110,013): +
- Growth (VUN 110,011): +
- growth on compound as the sole carbon and energy source [1]: grew

Compound: O=C(O)c1ccc(O)cc1 [p-hydroxybenzoic acid]
- Growth (VUN 110,010): +
- Growth (VUN 110,012): +
- Growth (VUN 110,013): +
- Growth (VUN 110,011): +
- growth on compound as the sole carbon and energy source [1]: grew

Compound: Tween 20
- Growth (VUN 110,010): +
- Growth (VUN 110,012): +
- Growth (VUN 110,013): +
- Growth (VUN 110,011): +
- growth on compound as the sole carbon and energy source [1]: grew

Compound: Tween 40
- growth on compound as the sole carbon and energy source [1]: grew

Compound: Tween 60
- growth on compound as the sole carbon and energy source [1]: grew

Compound: Tween 80
- Growth (VUN 110,010): +
- Growth (VUN 110,012): +
- Growth (VUN 110,013): +
- Growth (VUN 110,011): +
- growth on compound as the sole carbon and energy source [1]: grew
